≈ marks a conversion by molar mass, not a printed value.
How the values were obtained:
[1] = target: T1, PBP3 from Pseudomonas aeruginosa (PAO1) (Pseudomonas aeruginosa, UniProt G3XD46); assay: Bocillin-FL fluorescence polarization competition binding, P. aeruginosa PBP3; settings: Binding affinity to P. aeruginosa PBP3; fluorescence polarization competition binding assay using Bocillin-FL; read-out: P. aeruginosa PBP3 Potency
T1 construct: made in house
Outline: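 Purified PBP was preincubated with inhibitor (E. coli PBP3 1.5 μM, 30 min; P. aeruginosa PBP3 0.75 μM, A. baumannii PBP3 0.2 μM and PBP1a 1 μM, 15 min), then Bocillin-FL (0.1 μM; 0.05 μM for PBP1a) added and FP read up to 60 min. EC50 = 50% loss of bound probe.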

A. baumannii PBP2 = A. baumannii PBP2 (Acinetobacter baumannii, UniProt D0C8Z9); assay: Bocillin-FL competition binding via gel filtration, A. baumannii PBP2
Chain of A. baumannii PBP2 (D0C8Z9 whole entry): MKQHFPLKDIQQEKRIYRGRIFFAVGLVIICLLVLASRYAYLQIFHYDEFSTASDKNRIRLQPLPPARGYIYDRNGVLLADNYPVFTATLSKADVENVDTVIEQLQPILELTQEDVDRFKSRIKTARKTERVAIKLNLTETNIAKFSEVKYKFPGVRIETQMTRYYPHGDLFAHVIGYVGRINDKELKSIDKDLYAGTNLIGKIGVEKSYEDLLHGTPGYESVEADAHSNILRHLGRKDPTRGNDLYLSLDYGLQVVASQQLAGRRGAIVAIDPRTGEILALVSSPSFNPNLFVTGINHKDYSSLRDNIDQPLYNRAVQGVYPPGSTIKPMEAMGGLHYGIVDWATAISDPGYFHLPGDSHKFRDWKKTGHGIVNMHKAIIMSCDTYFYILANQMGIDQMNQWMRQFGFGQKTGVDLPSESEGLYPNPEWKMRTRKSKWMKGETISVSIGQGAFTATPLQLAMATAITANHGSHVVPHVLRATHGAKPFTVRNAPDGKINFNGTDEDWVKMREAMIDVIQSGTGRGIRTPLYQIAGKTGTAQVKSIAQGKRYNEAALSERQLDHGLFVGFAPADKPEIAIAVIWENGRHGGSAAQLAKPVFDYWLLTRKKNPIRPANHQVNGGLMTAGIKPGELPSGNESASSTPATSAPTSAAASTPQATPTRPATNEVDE
Outline: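 Competitive equilibrium binding; reporter Bocillin-FL. PBP + inhibitor (titration) pre-incubated → Bocillin-FL, 15 min → gel filtration → fluorescence. EC50 from Hill fit of fraction bound vs [inhibitor].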

P. aeruginosa ATCC 27853 = assay: microbe, parasite or virus in culture; assay type: cell-based; settings: Pseudomonas aeruginosa, ATCC27853, read-out: Minimum inhibitory concentration, P. aeruginosa ATCC 27853
A. baumannii ATCC 19606 = assay: microbe, parasite or virus in culture; assay type: cell-based; settings: Acinetobacter baumannii, ATCC19606, read-out: MIC, A. baumannii ATCC 19606
P. aeruginosa ATCC 35151 = assay: microbe, parasite or virus in culture; assay type: cell-based; settings: Pseudomonas aeruginosa, ATCC35151, read-out: Minimum inhibitory concentration, P. aeruginosa ATCC 35151
P. aeruginosa CDC-0090 = assay: microbe, parasite or virus in culture; assay type: cell-based; settings: Pseudomonas aeruginosa, CDC0090, read-out: Minimum inhibitory concentration, P. aeruginosa CDC-0090
P. aeruginosa CDC-0095 = assay: microbe, parasite or virus in culture; assay type: cell-based; settings: Pseudomonas aeruginosa, CDC0095, read-out: Minimum inhibitory concentration, P. aeruginosa CDC-0095
A. baumannii CDC-0033 = assay: microbe, parasite or virus in culture; assay type: cell-based; settings: Acinetobacter baumannii, CDC0033, read-out: MIC, A. baumannii CDC-0033
A. baumannii CDC-0045 = assay: microbe, parasite or virus in culture; assay type: cell-based; settings: Acinetobacter baumannii, CDC0045, read-out: MIC, A. baumannii CDC-0045
A. baumannii CDC-0083 = assay: microbe, parasite or virus in culture; assay type: cell-based; settings: Acinetobacter baumannii, CDC0083, read-out: MIC, A. baumannii CDC-0083
[2] = system: B. humptydooensis ATCC BAA-2767; assay: microbe, parasite or virus in culture; assay type: cell-based; settings: Burkholderia humptydooensis, ATCCBAA2767, read-out: Minimum inhibitory concentration (MIC), B. humptydooensis ATCC BAA-2767
P. aeruginosa CDC-0110 = assay: microbe, parasite or virus in culture; assay type: cell-based; settings: Pseudomonas aeruginosa, CDC0110, read-out: Minimum inhibitory concentration, P. aeruginosa CDC-0110

T1 sequence (G3XD46 whole entry): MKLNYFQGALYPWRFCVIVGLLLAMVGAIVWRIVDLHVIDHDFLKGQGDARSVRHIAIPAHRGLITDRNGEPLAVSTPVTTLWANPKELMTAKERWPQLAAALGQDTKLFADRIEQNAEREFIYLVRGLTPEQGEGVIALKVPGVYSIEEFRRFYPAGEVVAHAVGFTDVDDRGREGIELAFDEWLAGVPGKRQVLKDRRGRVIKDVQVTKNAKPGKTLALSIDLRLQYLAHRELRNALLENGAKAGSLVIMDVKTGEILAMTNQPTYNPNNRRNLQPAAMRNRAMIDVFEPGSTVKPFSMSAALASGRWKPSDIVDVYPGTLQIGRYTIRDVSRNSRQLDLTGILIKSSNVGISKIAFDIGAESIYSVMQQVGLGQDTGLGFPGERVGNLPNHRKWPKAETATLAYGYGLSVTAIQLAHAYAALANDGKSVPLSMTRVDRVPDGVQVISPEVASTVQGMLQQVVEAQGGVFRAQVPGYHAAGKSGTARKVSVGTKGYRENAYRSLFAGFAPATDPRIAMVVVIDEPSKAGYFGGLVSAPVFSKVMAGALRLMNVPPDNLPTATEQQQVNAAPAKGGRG

SMILES	IC50 [1] [µM]	EC50 (A. baumannii PBP2) [µM]	MIC (P. aeruginosa ATCC 27853) [µg/mL]	MIC (A. baumannii ATCC 19606) [µg/mL]	MIC (P. aeruginosa ATCC 35151) [µg/mL]	MIC (P. aeruginosa CDC-0090) [µg/mL]	MIC (P. aeruginosa CDC-0095) [µg/mL]	MIC (A. baumannii CDC-0033) [µg/mL]	MIC (A. baumannii CDC-0045) [µg/mL]	MIC (A. baumannii CDC-0083) [µg/mL]	MIC [2] [µg/mL]	MIC (P. aeruginosa CDC-0110) [µg/mL]
O=C(NCCCN1CCN(C(=O)N[C@@H](C(=O)N[C@H]2Cc3ccc(F)c(C(=O)O)c3OB2O)c2cc(F)c(O)c(O)c2Cl)C(=O)C1=O)c1cc(F)c(O)cc1F (single isomer, unassigned) [Example 473]	< 10	< 10	2 to 4 (≈ 2.51 to 5.03 µM)	< 1	< 1	2 to 4 (≈ 2.51 to 5.03 µM)	< 1	2 to 4 (≈ 2.51 to 5.03 µM)	< 1	> 128	< 1	< 1
O=C(O)c1c(F)ccc2c1OB(O)[C@@H](NC(=O)C(NC(=O)N1CCN(C3CCN(C(=O)c4cccc(O)c4)CC3)C(=O)C1=O)c1cc(F)c(O)c(O)c1Cl)C2 (stereo partly drawn) [Example 293, (3R)-3-(2-(2-chloro-5-fluoro-3,4-dihydroxyphenyl)-2-(4-(1-(3-hydroxybenzoyl)piperidin-4-yl)-2,3-dioxopiperazine-1-carboxamido)acetamido)-7-fluoro-2-hydroxy-3,4-dihydro-2H-benzo[e][1,2]oxaborinine-8-carboxylic acid]	< 10	10 to 50	2 to 4 (≈ 2.54 to 5.09 µM)	< 1	< 1	2 to 4 (≈ 2.54 to 5.09 µM)	2 to 4 (≈ 2.54 to 5.09 µM)	2 to 4 (≈ 2.54 to 5.09 µM)	< 1	< 1	< 1	< 1
O=C(NCCCN1CCN(C(=O)NC(C(=O)N[C@H]2Cc3ccc(F)c(C(=O)O)c3OB2O)c2cc(F)c(O)c(O)c2Cl)C(=O)C1=O)c1c(F)ccc(O)c1Cl (stereo partly drawn) [Example 414, (3R)-3-(2-(2-chloro-5-fluoro-3,4-dihydroxyphenyl)-2-(4-(3-(2-chloro-6-fluoro-3-hydroxybenzamido)propyl)-2,3-dioxopiperazine-1-carboxamido)acetamido)-7-fluoro-2-hydroxy-3,4-dihydro-2H-benzo[e][1,2]oxaborinine-8-carboxylic acid]	< 10	< 10	< 1	< 1	< 1	< 1	< 1	2 to 4 (≈ 2.46 to 4.92 µM)	2 to 4 (≈ 2.46 to 4.92 µM)	2 to 4 (≈ 2.46 to 4.92 µM)	2 to 4 (≈ 2.46 to 4.92 µM)	< 1
O=C(NCCCN1CCN(C(=O)NC(C(=O)N[C@H]2Cc3ccc(F)c(C(=O)O)c3OB2O)c2cc(F)c(O)c(O)c2Cl)C(=O)C1=O)c1ccc(F)c(O)c1 (stereo partly drawn) [Example 409, (3R)-3-(2-(2-chloro-5-fluoro-3,4-dihydroxyphenyl)-2-(4-(3-(4-fluoro-3-hydroxybenzamido)propyl)-2,3-dioxopiperazine-1-carboxamido)acetamido)-7-fluoro-2-hydroxy-3,4-dihydro-2H-benzo[e][1,2]oxaborinine-8-carboxylic acid]	< 10	< 10	< 1	< 1	< 1	< 1	2 to 4 (≈ 2.57 to 5.14 µM)	2 to 4 (≈ 2.57 to 5.14 µM)	< 1	< 1	8 to 16 (≈ 10.3 to 20.6 µM)	< 1
O=C(NCCCN1CCN(C(=O)NC(C(=O)N[C@H]2Cc3ccc(F)c(C(=O)O)c3OB2O)c2cc(F)c(O)c(O)c2Cl)C(=O)C1=O)c1ccc(O)c(F)c1F (stereo partly drawn) [Example 306, (3R)-3-(2-(2-chloro-5-fluoro-3,4-dihydroxyphenyl)-2-(4-(3-(2,3-difluoro-4-hydroxybenzamido)propyl)-2,3-dioxopiperazine-1-carboxamido)acetamido)-7-fluoro-2-hydroxy-3,4-dihydro-2H-benzo[e][1,2]oxaborinine-8-carboxylic acid]	< 10	< 10	2 to 4 (≈ 2.51 to 5.03 µM)	< 1	< 1	< 1	< 1	2 to 4 (≈ 2.51 to 5.03 µM)	< 1	2 to 4 (≈ 2.51 to 5.03 µM)	2 to 4 (≈ 2.51 to 5.03 µM)	< 1
O=C(NCCCN1CCN(C(=O)NC(C(=O)N[C@H]2Cc3ccc(F)c(C(=O)O)c3OB2O)c2cc(F)c(O)c(O)c2Cl)C(=O)C1=O)c1ccc(O)c(Cl)c1 (stereo partly drawn) [Example 305, (3R)-3-(2-(4-(3-(3-chloro-4-hydroxybenzamido)propyl)-2,3-dioxopiperazine-1-carboxamido)-2-(2-chloro-5-fluoro-3,4-dihydroxyphenyl)acetamido)-7-fluoro-2-hydroxy-3,4-dihydro-2H-benzo[e][1,2]oxaborinine-8-carboxylic acid]	< 10	< 10	2 to 4 (≈ 2.52 to 5.04 µM)	< 1	< 1	< 1	2 to 4 (≈ 2.52 to 5.04 µM)	2 to 4 (≈ 2.52 to 5.04 µM)	2 to 4 (≈ 2.52 to 5.04 µM)	2 to 4 (≈ 2.52 to 5.04 µM)	2 to 4 (≈ 2.52 to 5.04 µM)	< 1
O=C(NCCCN1CCN(C(=O)NC(C(=O)N[C@H]2Cc3ccc(F)c(C(=O)O)c3OB2O)c2cc(F)c(O)c(O)c2Cl)C(=O)C1=O)c1ccc(O)c(F)c1Cl (stereo partly drawn) [Example 418, (3R)-3-(2-(4-(3-(2-chloro-3-fluoro-4-hydroxybenzamido)propyl)-2,3-dioxopiperazine-1-carboxamido)-2-(2-chloro-5-fluoro-3,4-dihydroxyphenyl)acetamido)-7-fluoro-2-hydroxy-3,4-dihydro-2H-benzo[e][1,2]oxaborinine-8-carboxylic acid]	< 10	< 10	2 to 4 (≈ 2.46 to 4.92 µM)	< 1	< 1	< 1	2 to 4 (≈ 2.46 to 4.92 µM)	< 1	< 1	> 128	< 1	< 1
O=C(NCCCN1CCN(C(=O)NC(C(=O)N[C@H]2Cc3ccc(F)c(C(=O)O)c3OB2O)c2cc(F)c(O)c(O)c2Cl)C(=O)C1=O)c1cccc(O)c1F (stereo partly drawn) [Example 406, (3R)-3-(2-(2-chloro-5-fluoro-3,4-dihydroxyphenyl)-2-(4.-(3-(2-fluoro-3-hydroxybenzamido)propyl)-2,3-dioxopiperazine-1-carboxamido)acetamido)-7-fluoro-2-hydroxy-3,4-dihydro-2H-benzo[e][1,2]oxaborinine-8-carboxylic acid]	< 10	10 to 50	< 1	< 1	< 1	< 1	< 1	2 to 4 (≈ 2.57 to 5.14 µM)	< 1	< 1	8 to 16 (≈ 10.3 to 20.6 µM)	< 1
O=C(O)c1c(F)ccc2c1OB(O)[C@@H](NC(=O)C(NC(=O)N1CCN(C3CCN(C(=O)c4cc(O)cc(O)c4)CC3)C(=O)C1=O)c1cc(F)c(O)c(O)c1Cl)C2 (stereo partly drawn) [Example 309, (3R)-3-(2-(2-chloro-5-fluoro-3,4-dihydroxyphenyl)-2-(4-(1-(3,5-dihydroxybenzoyl)piperidin-4-yl)-2,3-dioxopiperazine-1-carboxamido)acetamido)-7-fluoro-2-hydroxy-3,4-dihydro-2H-benzo[e][1,2]oxaborinine-8-carboxylic acid]	< 10	< 10	2 to 4 (≈ 2.49 to 4.99 µM)	< 1	< 1	2 to 4 (≈ 2.49 to 4.99 µM)	2 to 4 (≈ 2.49 to 4.99 µM)	2 to 4 (≈ 2.49 to 4.99 µM)	< 1	< 1	< 1	< 1
O=C(NCCCN1CCN(C(=O)NC(C(=O)N[C@H]2Cc3ccc(F)c(C(=O)O)c3OB2O)c2cc(F)c(O)c(O)c2Cl)C(=O)C1=O)c1cc(O)c(F)c(O)c1 (stereo partly drawn) [Example 416, (3R)-3-(2-(2-chloro-5-fluoro-3,4-dihydroxyphenyl)-2-(4-(3-(4-fluoro-3,5-dihydroxybenzamido)propyl)-2,3-dioxopiperazine-1-carboxamido)acetamido)-7-fluoro-2-hydroxy-3,4-dihydro-2H-benzo[e][1,2]oxaborinine-8-carboxylic acid]	< 10	< 10	< 1	< 1	< 1	< 1	< 1	2 to 4 (≈ 2.52 to 5.04 µM)	< 1	< 1	< 1	< 1
